Our source for the EC50 values is patent US12006321B2, “Substituted pyrazolo[1,5-a]pyrimidines as apelin receptor agonists” (Sanford Burnham Prebys Medical Discovery Institute, priority 2017, dated 2024).

The target in this assay is T1, human apelin receptor (APJ, APLNR) (Homo sapiens, UniProt P35414).
T1 construct: host or cells: Chinese hamster ovary (CHO) cells, stably integrated receptor
T1 sequence (P35414 1-380): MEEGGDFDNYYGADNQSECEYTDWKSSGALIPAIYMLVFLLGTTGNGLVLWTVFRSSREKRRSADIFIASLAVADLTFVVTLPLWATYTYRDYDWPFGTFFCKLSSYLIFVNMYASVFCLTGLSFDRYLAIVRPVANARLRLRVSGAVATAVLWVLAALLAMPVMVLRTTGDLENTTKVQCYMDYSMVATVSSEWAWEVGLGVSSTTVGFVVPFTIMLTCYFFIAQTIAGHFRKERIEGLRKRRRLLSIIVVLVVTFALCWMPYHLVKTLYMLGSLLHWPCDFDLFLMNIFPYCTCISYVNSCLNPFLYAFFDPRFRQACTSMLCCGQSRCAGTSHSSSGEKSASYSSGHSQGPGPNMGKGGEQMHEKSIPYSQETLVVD
As to the kind of experiment: cell-based cAMP assay (TR-FRET) in Chinese hamster ovary cells expressing the apelin receptor. As to conditions: EC50 = 50% of control (apelin-13, 1 nM) response; cAMP in CHO cells, 0.5 h incubation; read-out: Potency Category. The method, boiled down: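 CHO cells stably expressing human APJ were forskolin-stimulated, then exposed to compound (0.0-100 μM, ≤1% DMSO) for 0.5 h. Lysate cAMP read by competitive TR-FRET immunoassay; EC50 and efficacy expressed relative to 1 nM apelin-13, four-parameter fit over ≥10 concentrations.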
A general note: Cyclic AMP is a second messenger, typically raised through Gs and lowered through Gi signalling.
`Cc1nn2c(C(C)(C)C)cc(C(=O)O)nc2c1-c1ccccc1` [Compound 2, 7-(tert-butyl)-2-methyl-3-phenyl-8-hydropyrazolo[1,5-a]pyrimidine-5-carboxylic acid]: the EC50 was over 500 nM.

`COCc1nn2c(C(C)C)cc(C(=O)OC)nc2c1-c1c(C)cccc1C` [Compound 88, methyl 3-(2,6-dimethylphenyl)-2-(methoxymethyl)-7-(methylethyl)-8-hydropyrazolo[1,5-a]pyrimidine-5-carboxylate]: the EC50 was over 500 nM.

Take `Cc1cccc(C)c1-c1c(C)nn2c(Oc3ccccc3)cc(C(=O)O)nc12` [Compound 107, 3-(2,6-dimethylphenyl)-2-methyl-7-phenoxy-8-hydropyrazolo[1,5-a]pyrimidine-5-carboxylic acid]: the EC50 was over 500 nM.

On to `Cc1nn2c(C(C)C)cc(C(=O)N(C)C)nc2c1-c1ccccc1` [Compound 16, N,N-dimethyl[2-methyl-7-(methylethyl)-3-phenyl(8-hydropyrazolo[1,5-a]pyrimidin-5-yl)]carboxamide], for which the EC50 is over 500 nM.

For `CCOC(=O)c1cc(-c2ccccc2)n2nc(C)c(-c3c(C)cccc3C)c2n1` [Compound 82, ethyl 3-(2,6-dimethylphenyl)-2-methyl-7-phenyl-8-hydropyrazolo[1,5-a]pyrimidine-5-carboxylate], the EC50 was over 500 nM.

On to `Cc1cccc(C)c1-c1cnn2c(C(C)C)cc(C(=O)O)nc12` [Compound 53, 3-(2,6-dimethylphenyl)-7-(methylethyl)-8-hydropyrazolo[1,5-a]pyrimidine-5-carboxylic acid], for which the EC50 was over 500 nM.

On to `CCOC(=O)c1cc(C(C)C)n2nc(C)c(-c3c(C)cccc3C(=O)OCC)c2n1` [Compound 67, ethyl 3-[2-(ethoxycarbonyl)-6-methylphenyl]-2-methyl-7-(methylethyl)-8-hydropyrazolo[1,5-a]pyrimidine-5-carboxylate], for which the EC50 was over 500 nM.

As for `CCOC(=O)c1cc(C(C)C)n2nc(-c3ccccc3)c(-c3c(C)cccc3C)c2n1` [Compound 78, ethyl 3-(2,6-dimethylphenyl)-7-(methylethyl)-2-phenyl-8-hydropyrazolo[1,5-a]pyrimidine-5-carboxylate], the EC50 was over 500 nM.

Consider `Cc1cccc(-c2c(C)nn3c(C(C)C)cc(C(=O)O)nc23)c1` [Compound 28, 2-methyl-7-(methylethyl)-3-(3-methylphenyl)-8-hydropyrazolo[1,5-a]pyrimidine-5-carboxylic acid], for which the EC50 was over 500 nM.

As for `COC(=O)c1cc(N(C)c2ccc(F)cc2)n2nc(C)c(-c3c(C)cccc3C)c2n1` [Compound 148], the EC50 is over 500 nM.

As to `Cc1cccc(CO)c1-c1c(C)nn2c(C(C)C)cc(C(=O)O)nc12` [Compound 128, 3-[6-(hydroxymethyl)-2-methylphenyl]-2-methyl-7-(methylethyl)-8-hydropyrazolo[1,5-a]pyrimidine-5-carboxylic acid], the EC50 was under 100 nM.

For the molecule `CCc1cc(C(=O)O)nc2c(-c3c(C)cccc3C)c(C)nn12` [Compound 72, 3-(2,6-dimethylphenyl)-7-ethyl-2-methyl-8-hydropyrazolo[1,5-a]pyrimidine-5-carboxylic acid], the EC50 is over 500 nM.

Turning to `CCOC(=O)c1cc(CC)n2nc(C)c(-c3c(C)cccc3C)c2n1` [Compound 58, ethyl 3-(2,6-dimethylphenyl)-7-ethyl-2-methyl-8-hydropyrazolo[1,5-a]pyrimidine-5-carboxylate], the EC50 was over 500 nM.

Consider `COC(=O)c1cc(Nc2ccc(C(F)(F)F)cc2)n2nc(C)c(-c3c(C)cccc3C)c2n1` [Compound 136, methyl 3-(2,6-dimethylphenyl)-2-methyl-7-{[4-(trifluoromethyl)phenyl]amino}-8-hydropyrazolo[1,5-a]pyrimidine-5-carboxylate], for which the EC50 is over 500 nM.

`Cc1cccc(C)c1-c1c(C)nn2c(C3CC3)cc(C(=O)O)nc12` [Compound 71, 3-(2,6-dimethylphenyl)-7-cyclopropyl-2-methyl-8-hydropyrazolo[1,5-a]pyrimidine-5-carboxylic acid]: the EC50 lay in the range of 200 to 500 nM.

As for `Cc1ccc(N(C)c2cc(C(=O)O)nc3c(-c4c(C)cccc4C)c(C)nn23)cc1` [Compound 150, 3-(2,6-dimethylphenyl)-2-methyl-7-[methyl(4-methylphenyl)amino]-8-hydropyrazolo[1,5-a]pyrimidine-5-carboxylic acid], the EC50 is over 500 nM.

For `CCOC(=O)c1cc(C(C)C)n2nc(C)c(-c3c(F)cccc3F)c2n1` [Compound 105, ethyl 3-(2,6-difluorophenyl)-2-methyl-7-(methylethyl)-8-hydropyrazolo[1,5-a]pyrimidine-5-carboxylate], the EC50 is over 500 nM.

On to `CC(C)c1cc(C(=O)O)nc2c(-c3ccccc3)cnn12` [Compound 7, 7-(methylethyl)-3-phenyl-8-hydropyrazolo[1,5-a]pyrimidine-5-carboxylic acid], for which the EC50 was over 500 nM.

On to `Cc1cccc(C)c1-c1c(C)nn2c(Nc3ccc(C#N)cc3)cc(C(=O)O)nc12` [Compound 145, 3-(2,6-dimethylphenyl)-7-[(4-cyanophenyl)amino]-2-methyl-8-hydropyrazolo[1,5-a]pyrimidine-5-carboxylic acid], for which the EC50 was over 500 nM.

With `COC(=O)c1cc(C(C)C)n2nc(C(=O)OC)c(-c3c(C)cccc3C)c2n1` [Compound 95, methyl 3-(2,6-dimethylphenyl)-2-(methoxycarbonyl)-7-(methylethyl)-8-hydropyrazolo[1,5-a]pyrimidine-5-carboxylate], the EC50 was over 500 nM.

As for `CCOC(=O)c1cc(C(C)C)n2ncc(-c3c(C)cccc3C)c2n1` [Compound 52, ethyl 3-(2,6-dimethylphenyl)-7-(methylethyl)-8-hydropyrazolo[1,5-a]pyrimidine-5-carboxylate], the EC50 was over 500 nM.

For `Cc1cccc(C)c1-c1c(C)nn2c(C(C)C)cc(C(=O)C(F)(F)F)nc12` [Compound 64, 1-[3-(2,6-dimethylphenyl)-2-methyl-7-(methylethyl)(8-hydropyrazolo[1,5-a]pyrimidin-5-yl)]-2,2,2-trifluoroethan-1-one], the EC50 is over 500 nM.

On to `Cc1cccc(C)c1-c1c(-c2ccccc2)nn2c(C(C)C)cc(C(=O)O)nc12` [Compound 79, 3-(2,6-dimethylphenyl)-7-(methylethyl)-2-phenyl-8-hydropyrazolo[1,5-a]pyrimidine-5-carboxylic acid], for which the EC50 is over 500 nM.

On to `Cc1cccc(C)c1-c1c(C)nn2c(Nc3ccc(F)cc3)cc(C(=O)O)nc12` [Compound 139, 3-(2,6-dimethylphenyl)-7-[(4-fluorophenyl)amino]-2-methyl-8-hydropyrazolo[1,5-a]pyrimidine-5-carboxylic acid], for which the EC50 was over 500 nM.

Take `COC(=O)c1nc2c(-c3ccccc3)c(C)nn2c(C(C)C)c1C` [Compound 37, methyl 2,6-dimethyl-7-(methylethyl)-3-phenyl-8-hydropyrazolo[1,5-a]pyrimidine-5-carboxylate]: the EC50 was over 500 nM.

Turning to `COc1ccc(-c2c(C)nn3c(C(=O)O)cc(C(C)C)nc23)cc1` [Compound 10, 3-(4-methoxyphenyl)-2-methyl-5-(methylethyl)-8-hydropyrazolo[1,5-a]pyrimidine-7-carboxylic acid], the EC50 is over 500 nM.

As to `CCOC(=O)c1cc(C(C)C)n2nc(C3CC3)c(-c3ccccc3)c2n1` [Compound 11, ethyl 2-cyclopropyl-7-(methylethyl)-3-phenyl-8-hydropyrazolo[1,5-a]pyrimidine-5-carboxylate], the EC50 is over 500 nM.

On to `COc1ccccc1-c1c(C)nn2c(C(C)C)cc(C(=O)O)nc12` [Compound 31, 3-(2-methoxyphenyl)-2-methyl-7-(methylethyl)-8-hydropyrazolo[1,5-a]pyrimidine-5-carboxylic acid], for which the EC50 is over 500 nM.

As for `Cc1ccccc1-c1c(C)nn2c(C(C)C)cc(C(=O)O)nc12` [Compound 20, 2-methyl-7-(methylethyl)-3-(2-methylphenyl)-8-hydropyrazolo[1,5-a]pyrimidine-5-carboxylic acid], the EC50 lay in the range of 100 to 200 nM.

Consider `COc1ccc(-c2c(C)nn3c(C(C)C)cc(C(=O)O)nc23)cc1` [Compound 9, 3-(4-methoxyphenyl)-2-methyl-7-(methylethyl)-8-hydropyrazolo[1,5-a]pyrimidine-5-carboxylic acid], for which the EC50 was over 500 nM.

Take `CCOC(=O)c1cc(C(C)C)n2nc(C)c(-c3c(C)cccc3C)c2n1` [Compound 39, ethyl 3-(2,6-dimethylphenyl)-2-methyl-7-(methylethyl)-8-hydropyrazolo[1,5-a]pyrimidine-5-carboxylate]: the EC50 was over 500 nM.

`CCOC(=O)c1cc(C(C)C)n2nc(C(=O)N(C)C)c(-c3c(C)cccc3C)c2n1` [Compound 100, ethyl 2-(N,N-dimethylcarbamoyl)-3-(2,6-dimethylphenyl)-7-(methylethyl)-8-hydropyrazolo[1,5-a]pyrimidine-5-carboxylate]: the EC50 was over 500 nM.

For the molecule `CCCc1c(C)c(C(=O)OCC)nc2c(-c3c(C)cccc3C)c(C)nn12` [Compound 54], the EC50 was over 500 nM.

On to `Cc1nn2c(C(C)C)cc(C(=O)O)nc2c1-c1cccc(F)c1` [Compound 26, 3-(3-fluorophenyl)-2-methyl-7-(methylethyl)-8-hydropyrazolo[1,5-a]pyrimidine-5-carboxylic acid], for which the EC50 is over 500 nM.
